Experimental data reported in patent US20220332720A1, “BICYCLIC AGONISTS OF STIMULATOR OF INTERFERON GENES STING” (The Scripps Research Institute, priority 2019, published 2022).
Like-named read-outs stand apart in the source and are kept apart here.

System: THP-1 Lucia ISG cells
Assay: ISG-LUC activation assay (ISRE-luciferase assay)
Format: cell-based
Settings: Homo sapiens, THP1-Lucia ISG, read-out: ISG-LUC activation assay score
Description: We have established a robust platform for identifying non-nucleotide small molecule STING agonists. his has been established using a primary assay involving a human THP-1 cell line carrying an IRF-inducible reporter with 5 copies of the IFN signaling response element. Counter screens, involving alternative reporter constructs, rodent cell-based assays, as well as cGAS and STING knock-out cell lines, are used to eliminate luciferase artifacts and ensure human-rodent cross species reactivity, as well as pathway selectivity. Biochemical assays, involving cGAS enzymatic activity and STING protein binding assays, are used to identify the specific target of identified hits.
Tissue culture. Wild-type (cat. no. thpl-isg) and STING KO (cat. no. thpd-kostg) THP-1-Lucia ISG cells were purchased from Invivogen and maintained in growth media consisting of RPMI 1640, 2mM L-glutamine, […], 10% heat-inactivated fetal bovine serum (FBS), 1,000 units/ml penicillin, 1,000 μg/ml streptomycin, 0.25 μg/ml Amphotericin B, and 100 μg/ml zeocin unless otherwise stated.
ISRE-luciferase assay. THP-1 Lucia ISG cells were resuspended in low-serum growth media (2% FBS) at a density of 5×10^5 cells/ml and treated with test article or vehicle (DMSO). 50 μL of cells were seeded into each well of a 384-well white greiner plates and incubated for 24 hours. To evaluate expression of the luciferase reporter, 30 μl of Quanti-luc (Invivogen) detection reagent was added to each well and luminescence was read using an Envision plate reader (Perkin Elmer) set with an integration time of 0.1 seconds.

[1] = THP-1 Lucia ISG reporter cells, 24 hours, score based upon potency and efficacy relative to reference compound

SMILES	EC50 (24 h) [nM]	EC50 [1] [nM]
C#Cc1cc(NC(=O)c2cc(N)c3nnnn3n2)c(C(=O)O)cc1F [Compound 1, lithium 2-(8-aminotetrazolo[1,5-b]pyridazine-6-carboxamido)-4-ethynyl-5-fluorobenzoate]	< 3000	
C#Cc1cc2nc(-c3cc(N)c4nnnn4n3)oc(=O)c2cc1F [Compound 2, 2(8-aminotetrazolo[1,5-b]pyridazin-6-yl)-7-ethynyl-6-fluoro-4H-benzo[d][1,3]oxazin-4-one]		< 900
COC(=O)c1cc(Cl)c(Cl)cc1NC(=O)c1ccn2c(C#N)cnc2n1 [Compound 3, methyl 4,5-dichloro-2-(3-cyanoimidazo[1,2-a]pyrimidine-7-carboxamido)benzoate]		< 900
C#Cc1cc(NC(=O)c2ccn3c(-c4cn[nH]c4)cnc3n2)c(C(=O)O)cc1F [Compound 4, 2-(3-(1H-pyrazol-4-yl)imidazo[1,2-a]pyrimidine-7-carboxamido)-4-ethynyl-5-fluorobenzoic acid]		> 20000
C=Cc1cc(NC(=O)c2cc(N)c3nnnn3n2)c(C(=O)O)cc1F [Compound 5]		> 1000
COc1cc(NC(=O)c2ccc3cnnn3n2)c(C(=O)O)cc1F [Compound 6]		< 3000
COc1cc(NC(=O)c2ccc3nnnn3n2)c(C(=O)O)cc1F [Compound 7]		< 3000
C#Cc1cc(NC(=O)c2cc(N)c3ncnn3n2)c(C(=O)O)cc1F [Compound 8]		> 1000
C#Cc1cc(NC(=O)c2ccc3nnnn3n2)c(C(=O)O)cc1F [Compound 9]		< 3000
COC(=O)c1cc(F)c(OC)cc1NC(=O)c1ccc2cnnn2n1 [Compound 10]		< 900
C#Cc1cc(NC(=O)c2cc(N)c3nnnn3n2)c(C(=O)O)nc1Cl [Compound 11]		> 1000
C#Cc1cc(NC(=O)c2ccc3c(C(N)=O)nnn3n2)c(C(=O)O)cc1F [Compound 12]		< 3000
C#Cc1cc(NC(=O)c2ccc3c(C#N)nnn3n2)c(C(=O)O)cc1F [Compound 13]		> 1000
C#Cc1cc(NC(=O)c2cc(N)c3nnnn3n2)c(C(=O)O)cc1Cl [Compound 14]		< 3000
COC(=O)c1cc(F)c(F)cc1NC(=O)c1cccn2cnnc12 [Compound 15]		> 1000
C=Cc1ccc(C(=O)O)c(NC(=O)c2cc(N)c3nnnn3n2)c1 [Compound 16]		> 1000
Nc1cc(C(=O)Nc2cc(Cl)c(Cl)cc2C(=O)O)nn2nncc12 [Compound 17]		> 1000
C#Cc1cc(NC(=O)c2cc(N)n3ncnc3n2)c(C(=O)O)cc1F [Compound 18]		> 1000
C#Cc1cc(NC(=O)c2cc(N)nn3nnnc23)c(C(=O)OC)cc1F [Compound 19]		< 900
C#Cc1cc(NC(=O)c2ccn3c(-c4cn[nH]c4)cnc3n2)c(C(=O)OC)cc1F [Compound 20]		> 1000

SMILES	EC50 (24 h) [nM]	EC50 [1] [nM]
COC(=O)c1cc(F)c(F)cc1NC(=O)c1ccc2nccn2n1 [Compound 21]		> 20000
O=C(Nc1cc(F)c(F)cc1C(=O)O)c1ccc2nnnn2n1 [Compound 22]		> 1000
O=C1CCn2nc(C(=O)Nc3cc(Cl)c(Cl)cc3C(=O)O)nc2N1 [Compound 23]		> 20000
C#Cc1ccc(C(=O)O)c(NC(=O)c2cc(N)c3nnnn3n2)c1 [Compound 24]		> 1000
COC(=O)c1nc(Cl)c(Cl)cc1NC(=O)c1cnc2nc[nH]c2c1 [Compound 25]		> 20000
C=C(F)c1cc(NC(=O)c2cc(N)c3nnnn3n2)c(C(=O)O)cc1F [Compound 26]		> 1000
C#Cc1cc(NC(=O)c2cc(N)c3[nH]c(C4CC4)nc3n2)c(C(=O)OC)cc1F [Compound 27]		> 20000
C#Cc1ccc(NC(=O)c2cc(N)c3nnnn3n2)c(C(=O)O)c1 [Compound 28]		> 20000
Nc1cc(C(=O)Nc2cc3ccccc3cc2C(=O)O)nn2nnnc12 [Compound 29]		> 20000
C=C(F)c1ccc(C(=O)OC)c(NC(=O)c2cc(N)n3ncnc3n2)c1 [Compound 30]		< 900
Nc1cc(C(=O)Nc2cc(C3CC3)ccc2C(=O)O)nn2nnnc12 [Compound 31]		> 20000
C#Cc1cc(NC(=O)c2cc(N)n3ccnc3n2)c(C(=O)O)cc1F [Compound 32]		> 1000
C=C(F)c1ccc(C(=O)O)c(NC(=O)c2cc(N)c3cnnn3n2)c1 [Compound 33]		> 1000
C#Cc1cc(NC(=O)c2cc(N)c3nnnn3n2)c(C(=O)OC)cc1Cl [Compound 34]		< 900
C/C=C/c1cc(NC(=O)c2cc(N)c3nnnn3n2)c(C(=O)OC)cc1F [Compound 35]		< 900
C#Cc1cc(NC(=O)c2cc(N)c3nnnn3n2)c(C(=O)O)cc1C#N [Compound 36]		< 3000
C#Cc1cc(NC(=O)c2ccn3nc(N)nc3n2)c(C(=O)O)cc1F [Compound 37]		> 20000
COC(=O)c1sc(C)cc1NC(=O)c1cc(N)c2nnnn2n1 [Compound 38]		> 1000
CC#Cc1cc(NC(=O)c2cc(N)c3nnnn3n2)c(C(=O)OC)cc1F [Compound 39]		> 1000
COC(=O)c1cc(F)c(C)cc1NC(=O)c1cc(N)c2nnnn2n1 [Compound 40]		< 900

SMILES	EC50 (24 h) [nM]	EC50 [1] [nM]
N#Cc1cc(NC(=O)c2cc(N)c3nnnn3n2)c(C(=O)O)cc1F [Compound 41]		> 1000
C#Cc1cc(NC(=O)c2ccc3nnnn3n2)c(C(=O)OC)cc1F [Compound 42]		< 900
Cc1cc(NC(=O)c2cc(N)c3nnnn3n2)c(C(=O)O)cc1F [Compound 43]		> 1000
C#Cc1cc2nc(-c3ccc4nnnn4n3)oc(=O)c2cc1F [Compound 44]		< 900
CCOC(=O)c1nc(Cl)sc1NC(=O)c1cc(N)c2nnnn2n1 [Compound 45]		> 1000
C#Cc1cc(NC(=O)c2cc(N)n3c(C#N)cnc3n2)c(C(=O)O)cc1F [Compound 46]		> 20000
COc1cc(NC(=O)c2cc(N)c3nnnn3n2)c(C(=O)OC(C)C)cc1F [Compound 47]		> 1000
COc1cc2nc(-c3ccc4nnnn4n3)oc(=O)c2cc1F [Compound 48]		< 900
COc1cc2nc(-c3cc(N)c4nnnn4n3)oc(=O)c2cc1F [Compound 49]		< 900
C#Cc1cc(NC(=O)c2cc(N)nn3nnnc23)c(C(=O)O)cc1F [Compound 50]		> 1000
C#Cc1cc(NC(=O)c2ccn3nc(-c4cn[nH]c4)nc3n2)c(C(=O)O)cc1F [Compound 51]		> 20000
C#Cc1cc(NC(=O)c2ccc3c(C#N)nnn3n2)c(C(=O)OC)cc1F [Compound 52]		> 1000
COc1cc(NC(=O)c2cc(N)c3nnnn3n2)c(C(=O)OC(C)OC(C)=O)cc1F (stereo not drawn) [Compound 54]		< 900
COc1cc(NC(=O)c2ccc3c(ncn3C)n2)c(C(=O)O)cc1F [Compound 55]		> 20000
COC(=O)c1cc(F)c(OC)cc1NC(=O)c1ccc2c(ncn2C)n1 [Compound 56]		> 1000
COC(=O)c1cc(F)c(OC)cc1NC(=O)c1ccn2c(N)nnc2n1 [Compound 57]		> 20000
COc1cc(NC(=O)c2ccn3c(N)nnc3n2)c(C(=O)O)cc1F [Compound 58]		> 20000
C#Cc1cc(NC(=O)c2ccn3c(-c4ccncc4)nnc3n2)c(C(=O)O)cc1F [Compound 59]		> 20000
C#Cc1cc(NC(=O)c2cc(N)c3nnnn3n2)c(C(=O)O[C@@H]2CSSC[C@H]2O)cc1F [Compound 60]		> 1000
C#Cc1cc(NC(=O)c2ccc3c(-c4nnc[nH]4)nnn3n2)c(C(=O)O)cc1F [Compound 61]		> 1000
